Read-outs that look alike come from different tables or passages of the source.
Columns and labels:
Experiment in all cases: 3D clonogenic assay (PDX)
Type in all cases: cell-based, human
[1] = test system: GXF 251; conditions: GXF 251, Gastric; for IC50: Homo sapiens
Summary of the method: (§1)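 Using cells isolated from PDX tumors carried in nude mice, inhibition of colony formation in soft agar was measured after 8–13 days of continuous compound exposure (50–0.0015 µM). IC50 values were derived from sigmoidal 4-parameter fits of the automated counts.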

[2] = test system: RXF 486; conditions: RXF 486, Renal; for IC50: Homo sapiens
Summary of the method: as §1

[3] = test system: PAXF 2053; conditions: PAXF 2053, Pancreas; for IC50: Homo sapiens
Summary of the method: as §1

[4] = test system: BXF 1228; conditions: BXF 1228, Bladder; for IC50: Homo sapiens
Summary of the method: as §1

[5] = test system: CXF 676; conditions: CXF 676, Colorectal; for IC50: Homo sapiens
Summary of the method: as §1

[6] = test system: PAXF 546; conditions: PAXF 546, Pancreas; for IC50: Homo sapiens, PAXF546
Summary of the method: as §1

[7] = test system: PAXF 2045; conditions: PAXF 2045, Pancreas; for IC50: Homo sapiens
Summary of the method: as §1

[8] = test system: CXF 94; conditions: CXF 94, Colorectal; for IC50: Homo sapiens
Summary of the method: as §1

[9] = test system: BXF 1218; conditions: BXF 1218, Bladder; for IC50: Homo sapiens
Summary of the method: as §1

[10] = test system: HNXF 536; conditions: HNXF 536, Head and Neck; for IC50: Homo sapiens
Summary of the method: as §1

[11] = test system: PAXF 1998; conditions: PAXF 1998, Pancreas; for IC50: Homo sapiens
Summary of the method: as §1

[12] = test system: MAXF 1162; conditions: MAXF 1162, Breast; for IC50: Homo sapiens
Summary of the method: as §1

Question: How did the “b (bottom plateau of concentration-effect curve)” value [1] turn out when O[C@H](c1cc(-c2ccc(Cl)cc2)nc2ccccc12)[C@@H]1CCCCN1 [S1, (R)-(2-(4-chlorophenyl)quinolin-4-yl)((S)-piperidin-2-yl)methanol] was run?
Answer: 34

Question: And the “t (top plateau of concentration-effect curve)” value [1]?
Answer: 111

Question: And the IC50 ([1]; read-out: abs. IC50)?
Answer: 6.02 µM

Question: What about the IC50 ([1]; read-out: rel. IC50) of the same compound?
Answer: 5.26 µM

Question: What about the IC50 ([2]; read-out: abs. IC50) of the same compound?
Answer: 12.8 µM

Question: What about the IC50 ([2]; read-out: rel. IC50) of the same compound?
Answer: 12.7 µM

Question: And the “b (bottom plateau of concentration-effect curve)” value [2]?
Answer: 5

Question: What about the “t (top plateau of concentration-effect curve)” value [2] of the same compound?
Answer: 97

Question: What about the IC50 ([3]; read-out: abs. IC50) of the same compound?
Answer: 5.87 µM

Question: And the IC50 ([3]; read-out: rel. IC50)?
Answer: 5.67 µM

Question: What about the “b (bottom plateau of concentration-effect curve)” value [3] of the same compound?
Answer: 18

Question: What about the “t (top plateau of concentration-effect curve)” value [3] of the same compound?
Answer: 101

Question: What about the “b (bottom plateau of concentration-effect curve)” value [4] of the same compound?
Answer: 22

Question: What about the “t (top plateau of concentration-effect curve)” value [4] of the same compound?
Answer: 98

Question: And the IC50 ([4]; read-out: abs. IC50)?
Answer: 8.12 µM

Question: What about the IC50 ([4]; read-out: rel. IC50) of the same compound?
Answer: 6.67 µM

Question: What about the “b (bottom plateau of concentration-effect curve)” value [5] of the same compound?
Answer: 19

Question: What about the “t (top plateau of concentration-effect curve)” value [5] of the same compound?
Answer: 105

Question: What about the IC50 ([5]; read-out: abs. IC50) of the same compound?
Answer: 8.92 µM

Question: And the IC50 ([5]; read-out: rel. IC50)?
Answer: 8.78 µM

Question: And the IC50 ([6]; read-out: abs. IC50)?
Answer: 9.22 µM

Question: What about the IC50 ([6]; read-out: rel. IC50) of the same compound?
Answer: 9.07 µM

Question: And the “b (bottom plateau of concentration-effect curve)” value [6]?
Answer: 25

Question: What about the “t (top plateau of concentration-effect curve)” value [6] of the same compound?
Answer: 96

Question: What about the IC50 ([7]; read-out: abs. IC50) of the same compound?
Answer: 8.14 µM

Question: And the IC50 ([7]; read-out: rel. IC50)?
Answer: 7.03 µM

Question: What about the “b (bottom plateau of concentration-effect curve)” value [7] of the same compound?
Answer: 22

Question: And the “t (top plateau of concentration-effect curve)” value [7]?
Answer: 95

Question: What about the “b (bottom plateau of concentration-effect curve)” value [8] of the same compound?
Answer: 8

Question: And the “t (top plateau of concentration-effect curve)” value [8]?
Answer: 98

Question: What about the IC50 ([8]; read-out: abs. IC50) of the same compound?
Answer: 13.3 µM

Question: And the IC50 ([8]; read-out: rel. IC50)?
Answer: 12.7 µM

Question: And the “b (bottom plateau of concentration-effect curve)” value [9]?
Answer: 15

Question: What about the “t (top plateau of concentration-effect curve)” value [9] of the same compound?
Answer: 100

Question: And the IC50 ([9]; read-out: abs. IC50)?
Answer: 6.16 µM

Question: What about the IC50 ([9]; read-out: rel. IC50) of the same compound?
Answer: 6.02 µM

Question: And the “b (bottom plateau of concentration-effect curve)” value [10]?
Answer: 14

Question: And the “t (top plateau of concentration-effect curve)” value [10]?
Answer: 99

Question: And the IC50 ([10]; read-out: abs. IC50)?
Answer: 8.21 µM

Question: What about the IC50 ([10]; read-out: rel. IC50) of the same compound?
Answer: 7.47 µM

Question: What about the IC50 ([11]; read-out: abs. IC50) of the same compound?
Answer: 8.89 µM

Question: What about the IC50 ([11]; read-out: rel. IC50) of the same compound?
Answer: 8.54 µM

Question: What about the “b (bottom plateau of concentration-effect curve)” value [11] of the same compound?
Answer: 38

Question: And the “t (top plateau of concentration-effect curve)” value [11]?
Answer: 104

Question: What about the IC50 ([12]; read-out: abs. IC50) of the same compound?
Answer: 4.64 µM

Question: What about the IC50 ([12]; read-out: rel. IC50) of the same compound?
Answer: 4.63 µM

Question: And the “b (bottom plateau of concentration-effect curve)” value [12]?
Answer: 12

Question: What about the “t (top plateau of concentration-effect curve)” value [12] of the same compound?
Answer: 90
